Key:
[1] = test system: Solid Ehrlich Carcinoma (SEC); test: In vivo anti-tumor activity in solid Ehrlich carcinoma (SEC)-bearing mice (tumor mass, volume, TIR%, hematology, histopathology)
Procedure: All experimental protocols were approved by the Research Ethics Committee and Institutional Animal Care and Use Committee, Faculty of Science, Suez Canal University with the ethical code (SCU-Sci-REC439/2025), and all methods were carried out according to the European Union guidelines and in accordance with ARRIVE guidelines. All animals were anesthetized using a combination of Xylazine 10 mg/kg- Ketamine 100 mg/kg of body weight, respectively, prior sacrifice via cervical decapitation.
In all graphs, treatments were administrated intraperitoneal (IP) with 6 mg/Kg B.Wt. for two weeks, day after day.
SIT, FLU and TNZ were tested using the five dose sigmoidal curves to determine the IC50 values. They were tested for the VEGFR2 inhibition using VEGFR2 Kinase Inhibition Assay Kit Catalog # 40325 BPS Bioscience, San Diego, CA. […] At the end of these experiment, anti-tumor potentiality was recorded using tumor weight (mg), tumor volume (mm^3), and the tumor inhibition ratio (TIR%). Hematological parameters of Hemoglobin (Hb, g/dL), RBC’s count (10^6/μL), and WBC’s count (10^3/μL) were investigated, along with histopathological and immunohistochemical staining of the VEGR2 protein.
Adult female Swiss albino mice purchased from Faculty of Pharmacy, Suez Canal University, Ismailia, Egypt, with an average body weight of (18-23) g was used. Mice were housed under constant conditions of 12 h light/dark cycle in a […], with free access to standard laboratory mice food and water. All procedures related to care and maintenance of the animals were performed according to the international guiding principles for animal research and approved by the Faculty of Pharmacy, Suez Canal University bioethics and animal ethics committee.
Solid Ehrlich carcinoma (SEC) was got from the National Cancer Institute (Cairo University, Egypt). The tumor cell line proliferated in mice through serial intraperitoneal (I.P.) transplantation of a volume of 0.2 mL physiological saline containing 1×10^6 viable cells for 24 h. SEC cells were collected 7 days after I.P. implantation. The harvested cells were diluted with saline to obtain a concentration of 5×10^6 viable SEC cells/mL. A volume of 0.2 mL saline contains 1×10^6 SEC cells that were I.P. implanted into each normal mouse. SEC cells (1×10^6 tumor cells/mouse) were implanted subcutaneously into the right thigh of the hind limb.
The experimental animals were randomly divided into four groups. Group 1 served as the normal saline control. Group 2 served as the SEC control (1×10^6 cells/mouse). Group 3 served as the ITR-treated group (6 mg/kg B.Wt., I.P.). […] Body weight and survival were recorded daily until the 24th day in both treated and control groups. At the end of the experiment, anesthetized animals were then sacrificed for evaluation of the antitumor activity and histopathological examination.
It includes tumor volume, weight, and tumor inhibition ratio (TIR%). Time interval measurements of tumor volume using a digital Vernier caliper (Tricle Brand, Shanghai, China). Measure tumor length and width using a clipper and then calculate tumor volume using formulations V = (L x W x W)/2, where V is tumor volume, W is tumor width, L is tumor length. While TIR% was calculated according to the following equation Tumor volume Control-Tumor volume (treated)Tumor volume (control)x 100.
Specimens of liver-sacrificed mice were fixed in 10% saline formalin. The fixed liver specimens were Dehydrated in ascending series of ethyl alcohol and embedded in paraffin.

[2] = test system: VEGF; test: Immunohistochemical staining of VEGF in SEC tumor sections; type: in vivo, mice; conditions: IHC of SEC tumor
From the text: VEGF has been considered a biomarker for VEGFR-2 bioactivity, as it binds to and activates this kinase receptor, playing a crucial role in angiogenesis. High VEGF levels are often associated with increased VEGFR-2 expression and activity, making VEGF a marker for VEGFR-2's function and tumor growth. […] The staining intensity is strong (+ 3), with dark brown cytoplasmic staining in most tumor cells. The immunoreactive score (IRS), calculated by multiplying the staining intensity score and the percentage of positive cells, is 9–12, indicating a high level of VEGF expression. This intense VEGF expression correlates with the presence of numerous irregular and dilated blood vessels in the tumor microenvironment.
The paraffin-infiltrated tissue was sliced into thin sections (4-6 μm) using a microtome and floated in a water bath. The sections were then mounted onto charged slides and left to dry overnight. The use of charged slides ensures the sections adhere properly to the slide. To carry out antibody staining, the paraffin wax was removed from the sample, and the tissue was rehydrated. The paraffin was eliminated by placing the tissue sections in three containers of xylene for 5 minutes each. Rehydration began by immersing the sections in two containers of 100% ethanol for 10 minutes each, followed by two containers of 95% ethanol for 10 minutes each. Finally, to complete the rehydration, the sections were washed twice in deionized water for 5 minutes each.
For antigen retrieval, the slides are heated in 10 mM Tris/1 mM EDTA, pH 9.0, kept at a sub-boiling temperature for 18 minutes, and then allowed to cool at room temperature for 30 minutes. For chromogenic staining detection, the sections are rinsed in deionized water three times for 5 minutes each, and then the endogenous peroxidase activity in the tissue sections is quenched to prevent high background staining by incubating the sections in 3% hydrogen peroxide for 10 minutes. Afterward, the sections are washed twice in deionized water for 5 minutes each, followed by a single wash in wash buffer for 5 minutes. A hydrophobic pen is used to carefully draw a large circle around the sample, ensuring it doesn’t touch the sample, creating a hydrophobic boundary to achieve optimal antibody staining quality. To prevent non-specific antibodies from binding to the tissue, each section is blocked with 100–400 µl of blocking solution for 1 hour at room temperature in a humidified chamber. The blocking solution was discarded, and 100–400 µl of diluted primary antibody was applied. […]
The slides were incubated overnight at 4°C in a humidified chamber. […] Then, 100–400 µl of Signal Stain DAB was applied to each section and monitored closely for 1–10 minutes until an acceptable staining intensity was achieved. […]

CNC(=O)c1cc(Oc2ccc(NC(=O)Nc3ccc(Cl)c(C(F)(F)F)c3)cc2)ccn1 [Sorafenib]
solid tumor mass ([1]; 6 mg/Kg B.Wt. IP, two weeks, day after day, SEC control 469 mg): 229 mg
tumor volume ([1]; 6 mg/Kg B.Wt. IP, two weeks, day after day, SEC control 420 mm^3): 214 mm^3
WBC's count ([1]; 6 mg/Kg IP, normal 5, SEC control 9.2): 6.6 10^3/µL
RBC's count ([1]; 6 mg/Kg IP, normal 6.9, SEC control 3.1): 4.9 10^6/µL
Hemoglobin level ([1]; 6 mg/Kg IP, normal 11.6, SEC control 4.6): 6.9 g/dL
Tumor cell density (histopathology of SEC mass) ([1]; isolated tumor mass, SEC control 2.2 cm^2): 0.5 cm^2
immunoreactive score (IRS) ([2]; scale 0-12, SEC control 9–12): 1–2
percentage of VEGF-positive tumor cells ([2]; SEC control 80–90%): 10–30%

From paper PMC12699035, “Exploring market-approved azoles as potential breast cancer therapeutics targeting the VEGFR-2 biotarget” (Scientific Reports, 2025)
